Experimental data taken from ChEMBL document CHEMBL5532657, “Serendipitous discovery of Class I HDAC inhibitors from rational design of molecular glue degraders targeting HDAC” (Eur J Med Chem, 2024).
Active and inactive are the calls of the source. The calls are words filed in the database; no cut-off is given here.

Tests used:
[1] = biological target: Histone deacetylase 1 (Homo sapiens, UniProt Q13547); experiment: Induction of HDAC1 degradation in human RS4-11 cells at 0.5 to 10 uM incubated for 12 hrs by Western blotting analysis; format: cell-based; conditions: dose 0.5-10 µM
Histone deacetylase 1, sequence (Q13547 whole entry): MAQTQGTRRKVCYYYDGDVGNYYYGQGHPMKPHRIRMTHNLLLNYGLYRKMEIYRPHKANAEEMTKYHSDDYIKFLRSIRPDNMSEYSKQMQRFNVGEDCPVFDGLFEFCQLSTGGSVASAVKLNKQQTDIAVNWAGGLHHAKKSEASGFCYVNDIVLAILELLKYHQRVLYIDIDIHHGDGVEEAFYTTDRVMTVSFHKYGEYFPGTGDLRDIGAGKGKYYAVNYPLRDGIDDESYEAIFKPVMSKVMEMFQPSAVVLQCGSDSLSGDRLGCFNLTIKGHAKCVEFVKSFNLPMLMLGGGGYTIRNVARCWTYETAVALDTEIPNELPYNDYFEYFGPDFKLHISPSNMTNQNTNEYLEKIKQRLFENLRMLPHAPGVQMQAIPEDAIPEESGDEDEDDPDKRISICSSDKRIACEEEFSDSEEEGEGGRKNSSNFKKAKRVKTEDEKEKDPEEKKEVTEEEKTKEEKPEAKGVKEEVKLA

[2] = system: HeLa; experiment: Antiproliferative activity against human HeLa cells assessed as cell growth inhibition at 5 uM incubated for 48 hrs by CCK-8 assay; format: functional, cell-based
[3] = system: A549; experiment: Antiproliferative activity against human A549 cells assessed as cell growth inhibition at 5 uM incubated for 48 hrs by CCK-8 assay; format: functional, cell-based
[4] = system: HCT-116; experiment: Antiproliferative activity against human HCT-116 cells assessed as cell growth inhibition at 5 uM incubated for 48 hrs by CCK-8 assay; format: functional, cell-based
[5] = biological target: T1, Protein deacetylase HDAC6 (Homo sapiens) (UniProt Q9UBN7); experiment: Induction of HDAC6 degradation in human RS4-11 cells at 0.5 to 10 uM incubated for 12 hrs by Western blotting analysis; format: cell-based; conditions: dose 0.5-10 µM
T1 sequence (whole entry): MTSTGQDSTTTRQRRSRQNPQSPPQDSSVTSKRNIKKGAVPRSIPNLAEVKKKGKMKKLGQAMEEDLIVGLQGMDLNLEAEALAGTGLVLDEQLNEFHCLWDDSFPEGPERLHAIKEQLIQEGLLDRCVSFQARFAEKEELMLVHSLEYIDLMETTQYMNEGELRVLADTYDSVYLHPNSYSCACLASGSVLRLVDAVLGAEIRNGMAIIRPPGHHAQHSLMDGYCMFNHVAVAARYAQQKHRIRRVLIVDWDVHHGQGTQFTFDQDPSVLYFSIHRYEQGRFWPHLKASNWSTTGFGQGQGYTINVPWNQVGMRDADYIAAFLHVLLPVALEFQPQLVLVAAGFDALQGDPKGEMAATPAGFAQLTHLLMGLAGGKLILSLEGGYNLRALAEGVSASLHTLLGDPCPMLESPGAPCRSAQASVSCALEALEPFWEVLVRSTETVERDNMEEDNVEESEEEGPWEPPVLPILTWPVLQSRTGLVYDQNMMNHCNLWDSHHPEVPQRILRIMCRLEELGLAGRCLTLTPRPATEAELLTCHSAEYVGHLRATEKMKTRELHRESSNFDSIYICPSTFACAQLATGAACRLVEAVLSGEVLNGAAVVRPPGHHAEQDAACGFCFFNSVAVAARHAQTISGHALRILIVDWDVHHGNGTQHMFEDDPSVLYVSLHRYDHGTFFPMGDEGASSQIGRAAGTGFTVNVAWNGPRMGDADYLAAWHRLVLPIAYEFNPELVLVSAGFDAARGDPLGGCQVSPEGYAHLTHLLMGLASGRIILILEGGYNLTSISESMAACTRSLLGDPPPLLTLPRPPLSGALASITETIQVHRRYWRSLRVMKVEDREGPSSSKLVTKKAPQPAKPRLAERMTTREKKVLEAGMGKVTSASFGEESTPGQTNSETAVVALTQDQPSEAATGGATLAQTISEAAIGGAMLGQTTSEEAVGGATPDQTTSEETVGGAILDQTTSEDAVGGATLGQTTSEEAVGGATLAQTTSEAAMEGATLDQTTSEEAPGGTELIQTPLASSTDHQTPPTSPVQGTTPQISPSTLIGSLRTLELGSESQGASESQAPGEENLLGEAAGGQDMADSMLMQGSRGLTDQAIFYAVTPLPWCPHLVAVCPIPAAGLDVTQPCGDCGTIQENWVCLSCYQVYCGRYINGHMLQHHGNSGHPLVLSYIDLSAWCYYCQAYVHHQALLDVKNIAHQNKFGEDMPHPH

Row | Activity [1] | Activity [5] | SMILES | Activity [2] | Activity [3] | Activity [4]
1 | inactive | inactive | O=C(CCCNc1cccc2c1C(=O)N(C1CCC(=O)NC1=O)C2=O)NO (stereo not given) | inactive | inactive | inactive
2 | inactive | inactive | O=C(CCCCCNc1cccc2c1C(=O)N(C1CCC(=O)NC1=O)C2=O)NO (stereo not given) | inactive | inactive | inactive
3 | inactive | inactive | O=C1CCC(N2C(=O)c3cccc(NCCOCCOCCOCCn4cc(C(=O)NCCS)nn4)c3C2=O)C(=O)N1 (stereo not given) | inactive | inactive | inactive
4 | inactive | inactive | Nc1cc(F)ccc1NC(=O)CCCCNc1cccc2c1C(=O)N(C1CCC(=O)NC1=O)C2=O (stereo not given) | inactive | inactive | inactive
5 | inactive | inactive | O=C1CCC(N2C(=O)c3cccc(NCCOCCOCCOCCn4cc(C(=O)NO)nn4)c3C2=O)C(=O)N1 (stereo not given) | inactive | inactive | inactive
6 | inactive | inactive | Nc1ccccc1NC(=O)CCCCCNc1cccc2c1C(=O)N(C1CCC(=O)NC1=O)C2=O (stereo not given) | inactive | inactive | inactive
7 | inactive | inactive | O=C(CCCCCCCNc1cccc2c1C(=O)N(C1CCC(=O)NC1=O)C2=O)NO (stereo not given) | inactive | inactive | inactive
8 | inactive | inactive | CCCNNC(=O)c1ccc(CNc2cccc3c2C(=O)N(C2CCC(=O)NC2=O)C3=O)cc1 (stereo not given) | inactive | inactive | inactive
9 | inactive | inactive | Nc1ccccc1NC(=O)c1cn(CCOCCOCCNc2cccc3c2C(=O)N(C2CCC(=O)NC2=O)C3=O)nn1 (stereo not given) | inactive | inactive | inactive
10 | inactive | inactive | CCNNC(=O)CCCCCCNc1cccc2c1C(=O)N(C1CCC(=O)NC1=O)C2=O (stereo not given) | inactive | inactive | inactive
11 | inactive | inactive | Nc1cc(F)ccc1NC(=O)CCCCCNc1cccc2c1C(=O)N(C1CCC(=O)NC1=O)C2=O (stereo not given) | inactive | inactive | inactive
12 | inactive | inactive | O=C(CCCCCCCNc1cccc2c1C(=O)N(C1CCC(=O)NC1=O)C2=O)NCCS (stereo not given) | inactive | inactive | inactive
13 | inactive | inactive | Nc1ccccc1NC(=O)c1cn(CCOCCNc2cccc3c2C(=O)N(C2CCC(=O)NC2=O)C3=O)nn1 (stereo not given) | inactive | inactive | inactive
14 | inactive | inactive | CCCNNC(=O)CCCCCCNc1cccc2c1C(=O)N(C1CCC(=O)NC1=O)C2=O (stereo not given) | inactive | inactive | inactive
15 | inactive | inactive | Nc1ccccc1NC(=O)CCCNc1cccc2c1C(=O)N(C1CCC(=O)NC1=O)C2=O (stereo not given) | inactive | inactive | inactive
16 | inactive | inactive | O=C(CCCCNc1cccc2c1C(=O)N(C1CCC(=O)NC1=O)C2=O)NO (stereo not given) | inactive | inactive | inactive

Row | Activity [1] | Activity [5] | SMILES | Activity [2] | Activity [3] | Activity [4]
17 | inactive | inactive | O=C(CCCNc1cccc2c1C(=O)N(C1CCC(=O)NC1=O)C2=O)NCCS (stereo not given) | inactive | inactive | inactive
18 | inactive | inactive | O=C1CCC(N2C(=O)c3cccc(NCCOCCOCCn4cc(C(=O)NO)nn4)c3C2=O)C(=O)N1 (stereo not given) | inactive | inactive | inactive
19 | inactive | inactive | Nc1cc(F)ccc1NC(=O)c1cn(CCOCCNc2cccc3c2C(=O)N(C2CCC(=O)NC2=O)C3=O)nn1 (stereo not given) | inactive | inactive | inactive
20 | inactive | inactive | O=C1CCC(N2C(=O)c3cccc(NCCOCCOCCn4cc(C(=O)NCCS)nn4)c3C2=O)C(=O)N1 (stereo not given) | inactive | inactive | inactive
21 | inactive | inactive | Nc1cc(F)ccc1NC(=O)CCCCCCNc1cccc2c1C(=O)N(C1CCC(=O)NC1=O)C2=O (stereo not given) | inactive | inactive | inactive
22 | inactive | inactive | Nc1ccccc1NC(=O)c1cn(CCOCCOCCOCCNc2cccc3c2C(=O)N(C2CCC(=O)NC2=O)C3=O)nn1 (stereo not given) | inactive | inactive | inactive
23 | inactive | inactive | Nc1ccccc1NC(=O)CCCCCCCNc1cccc2c1C(=O)N(C1CCC(=O)NC1=O)C2=O (stereo not given) | inactive | inactive | inactive
24 | inactive | inactive | Nc1cccc2c1C(=O)N(C1CCC(=O)NC1=O)C2=O (stereo not given) | inactive | inactive | inactive
25 | inactive | inactive | Nc1cc(F)ccc1NC(=O)CCCCCCCNc1cccc2c1C(=O)N(C1CCC(=O)NC1=O)C2=O (stereo not given) | inactive | inactive | inactive
26 | inactive | inactive | CCNNC(=O)c1ccc(CNc2cccc3c2C(=O)N(C2CCC(=O)NC2=O)C3=O)cc1 (stereo not given) | inactive | inactive | inactive
27 | inactive | inactive | O=C1CCC(N2C(=O)c3cccc(NCc4ccc(C(=O)NCCS)cc4)c3C2=O)C(=O)N1 (stereo not given) | inactive | inactive | inactive
28 | inactive | inactive | Nc1ccccc1NC(=O)CCCCCCNc1cccc2c1C(=O)N(C1CCC(=O)NC1=O)C2=O (stereo not given) | inactive | inactive | inactive
29 | inactive | inactive | O=C(CCCCCNc1cccc2c1C(=O)N(C1CCC(=O)NC1=O)C2=O)NCCS (stereo not given) | inactive | inactive | inactive
30 | inactive | inactive | O=C1CCC(N2C(=O)c3cccc(NCCOCCn4cc(C(=O)NCCS)nn4)c3C2=O)C(=O)N1 (stereo not given) | inactive | inactive | inactive
31 | inactive | inactive | O=C1CCC(N2C(=O)c3cccc(NCCOCCn4cc(C(=O)NO)nn4)c3C2=O)C(=O)N1 (stereo not given) | inactive | inactive | inactive
